In ChEMBL document CHEMBL3817779, “Identification of novel 2-aminothiazole conjugated nitrofuran as antitubercular and antibacterial agents” (Bioorg Med Chem Lett, 2016):
pIC50: −log10 of the molar value. Converted amounts (≈) assume the structure as drawn.

Legend:
[1] = test system: Mycobacterium tuberculosis; type: functional; details: H37Ra ATCC 25177
Vero = experiment: Cytotoxicity against African green monkey Vero cells assessed as reduction in cell viability after 72 hrs by MTT assay; type: cell-based; details: Chlorocebus sabaeus
[2] = test system: Mycobacterium tuberculosis; type: functional; details: H37Ra ATCC 25177; remark: listed apart in the source
Staphylococcus aureus [3] = experiment: Antibacterial activity against Staphylococcus aureus ATCC 6538; type: functional
[4] = test system: Mycobacterium tuberculosis; experiment: microbe, parasite or virus in culture; details: H37Ra ATCC 25177
Description: Antitubercular activity against Mycobacterium tuberculosis H37Ra ATCC 25177

[5] = Aqueous solubility in water at room temperature sonicated for 30 mins followed by overnight incubation by HPLC analysis; type: physicochemical
[6] = test system: Mycobacterium tuberculosis; experiment: Antitubercular activity against Mycobacterium tuberculosis H37Rv assessed as inhibition of visible growth after 7 days by microbroth dilution method; type: functional; details: 168 h
Staphylococcus aureus [7] = experiment: Antibacterial activity against Staphylococcus aureus ATCC 6538 at 20 uM relative to control; type: functional
[8] = test system: Mycobacterium tuberculosis; type: functional; details: H37Ra ATCC 25177; remark: listed apart in the source

SMILES | inhibition at 1 µM [1] [%] | pIC50 (Vero) | inhibition at 10 µM [2] [%] | MIC (Staphylococcus aureus [3]) [µg/mL] | MIC90 [4] [µg/mL] | solubility at 0.5 h [5] [µg/mL] | MIC [6] [µg/mL] | inhibition at 20 µM (Staphylococcus aureus [7]) [%] | inhibition at 20 µM [8] [%]
COc1ccc(-c2csc(NC(=O)c3ccc([N+](=O)[O-])o3)n2)cc1 | -8.3 | 4.20 | 99.3 | – | – | – | – | – | –
O=C(O)c1cn(C2CC2)c2cc(N3CCNCC3)c(F)cc2c1=O [CIPROFLOXACIN] | 99.6 | – | 99.7 | 0.26 (≈ 0.785 µM) | 1.04 (≈ 3.14 µM) | – | – | – | –
CS(=O)(=O)Nc1cccc(-c2csc(NC(=O)c3ccc([N+](=O)[O-])o3)n2)c1 | -4.1 | > 5.55 | 82.1 | – | – | – | – | – | –
O=C(Nc1cccc(-c2csc(NC(=O)c3ccc([N+](=O)[O-])o3)n2)c1)c1ccccc1 | 98.9 | 4.30 | 99.5 | 1.36 (≈ 3.13 µM) | 0.27 (≈ 0.621 µM) | 1.27 (≈ 2.92 µM) | – | – | –
CC(=O)Nc1cccc(-c2csc(NC(=O)c3ccc([N+](=O)[O-])o3)n2)c1 | 40.6 | 4.24 | 99.4 | – | – | – | – | – | –
COc1cccc(-c2csc(NC(=O)c3ccco3)n2)c1 | 1.9 | < 4.05 | -0.9 | – | – | – | – | – | –
COc1cccc(-c2csc(NC(=O)c3ccc(N)o3)n2)c1 | 5.2 | – | – | – | – | – | – | – | –
O=[N+]([O-])c1ccc(C2=NOC(c3ccc(N4CCC(Oc5ccc(OC(F)(F)F)cc5)CC4)cc3)C2)o1 (stereo unspecified) | – | – | – | – | – | – | 0.024 (≈ 0.0464 µM) | – | –
O=C(Nc1cccc(-c2csc(NC(=O)c3ccc([N+](=O)[O-])o3)n2)c1)c1cccc(C(F)(F)F)c1 | 13.7 | – | – | – | – | – | – | – | –
O=C(Nc1nc(-c2cccc(NC(=O)C3CCC3)c2)cs1)c1ccc([N+](=O)[O-])o1 | 1.9 | – | – | – | – | – | – | – | –
COc1cccc(-c2csc(NC(=O)c3ccc([N+](=O)[O-])cc3)n2)c1 | -0.4 | < 4.05 | -1.5 | – | – | – | – | – | –
CC(C)(C)OC(=O)Nc1cccc(-c2csc(NC(=O)c3ccc([N+](=O)[O-])o3)n2)c1 | 40 | – | – | – | – | – | – | – | –
COc1ccccc1-c1csc(NC(=O)c2ccc([N+](=O)[O-])o2)n1 | -3 | 4.38 | 99.5 | – | – | – | – | – | –
O=C(Nc1nc(-c2cccc(NC(=O)C3CCCCC3)c2)cs1)c1ccc([N+](=O)[O-])o1 | 98.9 | 4.66 | 99.1 | 2.75 (≈ 6.24 µM) | 0.28 (≈ 0.636 µM) | 3.46 (≈ 7.86 µM) | – | – | –
O=C(Nc1nc(-c2cccc(Br)c2)cs1)c1ccc([N+](=O)[O-])o1 | 70.4 | 4.15 | 98.9 | – | – | – | – | – | –
O=C(Nc1nc(-c2cccc(F)c2)cs1)c1ccc([N+](=O)[O-])o1 | 95.7 | 4.29 | 99.6 | 4.17 (≈ 12.5 µM) | 0.83 (≈ 2.49 µM) | 14.8 (≈ 44.5 µM) | – | – | –

SMILES | inhibition at 1 µM [1] [%] | pIC50 (Vero) | inhibition at 10 µM [2] [%] | MIC (Staphylococcus aureus [3]) [µg/mL] | MIC90 [4] [µg/mL] | solubility at 0.5 h [5] [µg/mL] | MIC [6] [µg/mL] | inhibition at 20 µM (Staphylococcus aureus [7]) [%] | inhibition at 20 µM [8] [%]
O=C(Nc1nc(-c2ccccc2)cs1)c1ccc([N+](=O)[O-])o1 | 37.2 | 4.38 | 99.5 | – | – | – | – | – | –
O=C(Nc1nc(-c2c(F)cc(F)cc2F)cs1)c1ccc([N+](=O)[O-])o1 | -4.1 | 4.70 | -10.1 | – | – | – | – | – | –
COc1ccc(C(=O)Nc2cccc(-c3csc(NC(=O)c4ccc([N+](=O)[O-])o4)n3)c2)cc1 | -2.7 | – | – | – | – | – | – | – | –
Cc1cc(C)c(-c2csc(NC(=O)c3ccc([N+](=O)[O-])o3)n2)c(C)c1 | 0.9 | 4.52 | -4.3 | – | – | – | – | – | –
CC(C)Oc1cccc(-c2csc(NC(=O)c3ccc([N+](=O)[O-])o3)n2)c1 | 97.8 | 4.16 | 99.2 | 4.67 (≈ 12.5 µM) | 0.47 (≈ 1.26 µM) | 0.27 (≈ 0.723 µM) | – | – | –
O=C(Nc1nc(-c2cccc(C(F)(F)F)c2)cs1)c1ccc([N+](=O)[O-])o1 | 67 | 4.62 | 98.6 | – | – | – | – | – | –
O=C(Nc1nc(-c2cccc(NC(=O)C3CC3)c2)cs1)c1ccc([N+](=O)[O-])o1 | 99.3 | 4.45 | 99.6 | 2.49 (≈ 6.25 µM) | 0.5 (≈ 1.26 µM) | 0.47 (≈ 1.18 µM) | – | – | –
O=C(Nc1cccc(-c2csc(NC(=O)c3ccc([N+](=O)[O-])o3)n2)c1)c1ccc(F)cc1 | 39.8 | – | – | – | – | – | – | – | –
O=C(Nc1nc(-c2cccc(NS(=O)(=O)Cc3ccccc3)c2)cs1)c1ccc([N+](=O)[O-])o1 | 93.9 | 4.23 | – | 1.52 (≈ 3.14 µM) | 0.61 (≈ 1.26 µM) | 0.48 (≈ 0.991 µM) | – | – | –
CCOc1cccc(-c2csc(NC(=O)c3ccc([N+](=O)[O-])o3)n2)c1 | 95.7 | < 4.05 | 99.4 | 4.49 (≈ 12.5 µM) | 0.9 (≈ 2.5 µM) | 0.34 (≈ 0.946 µM) | – | – | –
O=C(Nc1nc(-c2cccc(Cl)c2)cs1)c1ccc([N+](=O)[O-])o1 | 40.5 | 4.36 | 99.2 | – | – | – | – | – | –
Nc1cccc(-c2csc(NC(=O)c3ccc([N+](=O)[O-])o3)n2)c1 | -1.1 | – | – | – | – | – | – | – | –
O=C(Nc1nc(-c2cccc(OC3CCCC3)c2)cs1)c1ccc([N+](=O)[O-])o1 | 97.9 | 4.09 | 99.3 | 4.99 (≈ 12.5 µM) | 1 (≈ 2.5 µM) | 0.027 (≈ 0.0676 µM) | – | – | –
COc1cccc(-c2csc(NC(=O)c3ccc([N+](=O)[O-])o3)n2)c1 | 68.8 | 4.23 | 100 | – | – | – | – | 99.5 | 99.5
O=C(Nc1nc(-c2cccc(NC(=O)C3CCCC3)c2)cs1)c1ccc([N+](=O)[O-])o1 | 0.2 | – | – | – | – | – | – | – | –
